According to US11034700B2, “Substituted pyrrolidine compound and use thereof” (Takeda Pharmaceutical Company Limited, priority 2017, dated 2021):

Target: T1, human OX2 receptor (Homo sapiens, UniProt O43614)
T1 construct: expressed in transfected cells
T1 sequence (O43614 1-444): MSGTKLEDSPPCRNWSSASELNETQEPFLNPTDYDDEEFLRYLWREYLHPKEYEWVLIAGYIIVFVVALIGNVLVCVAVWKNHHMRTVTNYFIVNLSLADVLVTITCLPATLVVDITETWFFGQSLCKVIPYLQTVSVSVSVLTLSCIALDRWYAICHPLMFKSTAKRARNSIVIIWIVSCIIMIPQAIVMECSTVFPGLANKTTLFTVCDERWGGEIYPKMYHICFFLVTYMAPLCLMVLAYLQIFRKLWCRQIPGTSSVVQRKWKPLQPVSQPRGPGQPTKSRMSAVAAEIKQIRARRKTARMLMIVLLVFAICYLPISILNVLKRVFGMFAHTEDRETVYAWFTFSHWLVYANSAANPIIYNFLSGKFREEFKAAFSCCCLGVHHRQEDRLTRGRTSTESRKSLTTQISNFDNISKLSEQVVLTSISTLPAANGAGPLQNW
Assay: Measurement of orexin type 2 receptor agonist activity (Fluo-4 calcium fluorescence, FDSS)
Format: cell-based
Conditions: compound at 3 μM; CHO cells forcibly expressing human OX2 receptor; DMSO = 0%, orexin A (human) 10 nM = 100%
Text: Experimental Example 1: Obtainment of Cell Stably Expressing Human Orexin Type 2 Receptor (hOX2R)
To obtain a cell clone stably expressing human orexin type 2 receptor, human orexin type 2 receptor cDNA was inserted into pcDNA3.1(+) plasmid vector (Invitrogen), and a plasmid DNA for expression of human orexin type 2 receptor (pcDNA3.1(+)/hOX2R) was cloned. The plasmid DNA was introduced into CHO-dhfr cell by an electroporation method, and human orexin type 2 receptor expressing clone cells were obtained by limiting dilution method by using G418 drug resistance as a selection marker.
Experimental Example 2: Measurement of Orexin Type 2 Receptor Agonist Activity
CHO cells forcibly expressing human OX2 receptor were seeded in each well of 384 well black transparent bottom plate (BD Falcon) at 7,500 cells/well, and cultured for one day in a 5% CO2 incubator at 37° C. After removal of the medium in the cell plate, assay buffer A containing a calcium indicator (HESS (Life Technologies), 20 mM HEPES (Life Technologies), 0.1% BSA (Wako Pure Chemical Industries, Ltd.), 2.5 μg/mL Fluo-4 AM (DOJINDO Chemical), 0.08% Pluronic F127 (DOJINDO Chemical), 1.25 mM probenecid (DOJINDO Chemical)) was added at 30 μL/well. The plate was stood for 30 min in a 5% CO2 incubator at 37° C., and further stood at room temperature for 30 min. A test compound prepared by diluting with assay buffer B (HESS, 20 mM HEPES, 0.1% BSA) was added at 10 μL/well, and the fluorescence value was measured by FDSSμCELL (Hamamatsu Photonics K.K.) every one sec for 1 min, and thereafter every two sec for 1 min 40 sec. The activity (%) of the test compound was calculated assuming that variation in the fluorescence value when DMSO was added instead of the test compound was 0% […], and variation in the fluorescence value when orexin A (human) (PEPTIDE INSTITUTE, INC.) was added at the final concentration of 10 nM was 100% […]. The activity of each compound at the concentration of 3 μM was shown below.

SMILES | OX2R agonist activity (3 μM, %) [%]
COc1ccccc1S(=O)(=O)Nc1cccc(O[C@@H]2CN(C(=O)c3cc(C)ccc3C)C[C@H]2OC)c1 (relative stereo) [Example 56, trans-N-(3-((1-(2,5-dimethylbenzoyl)-4-methoxypyrrolidin-3-yl)oxy)phenyl)-2-methoxybenzenesulfonamide] | 101
CO[C@@H]1CN(C(=O)c2cc(C)ccc2C)C[C@H]1Oc1cccc(NS(=O)(=O)c2ccccc2)c1 (relative stereo) [Example 65, trans-N-(3-((1-(2,5-dimethylbenzoyl)-4-methoxypyrrolidin-3-yl)oxy)phenyl)benzenesulfonamide] | 78
CCCS(=O)(=O)Nc1cccc(O[C@@H]2CN(C(=O)c3cc(C)ccc3C)C[C@H]2OC)c1 (relative stereo) [Example 66, trans-N-(3-((1-(2,5-dimethylbenzoyl)-4-methoxypyrrolidin-3-yl)oxy)phenyl)propane-1-sulfonamide] | 76
COc1ccccc1S(=O)(=O)Nc1ccc(F)c(O[C@@H]2CN(C(=O)c3cc(C)ccc3C)C[C@H]2OC)c1 (relative stereo) [Example 86, trans-N-(3-((1-(2,5-dimethylbenzoyl)-4-methoxypyrrolidin-3-yl)oxy)-4-fluorophenyl)-2-methoxybenzenesulfonamide] | 80
COc1ccccc1S(=O)(=O)Nc1cccc(O[C@@H]2CN(C(=O)c3cc(C)ccc3C)C[C@H]2OC)c1F (relative stereo) [Example 87, trans-N-(3-((1-(2,5-dimethylbenzoyl)-4-methoxypyrrolidin-3-yl)oxy)-2-fluorophenyl)-2-methoxybenzenesulfonamide] | 103
COc1ccccc1S(=O)(=O)Nc1cc(F)cc(O[C@@H]2CN(C(=O)c3cc(C)ccc3C)C[C@H]2OC)c1 (relative stereo) [Example 100, trans-N-(3-((1-(2,5-dimethylbenzoyl)-4-methoxypyrrolidin-3-yl)oxy)-5-fluorophenyl)-2-methoxybenzenesulfonamide] | 102
COc1ccccc1S(=O)(=O)Nc1ccnc(O[C@@H]2CN(C(=O)c3cc(C)ccc3C)C[C@H]2OC)c1 (relative stereo) [Example 101, trans-N-(2-((1-(2,5-dimethylbenzoyl)-4-methoxypyrrolidin-3-yl)oxy)pyridin-4-yl)-2-methoxybenzenesulfonamide] | 95
COc1ccccc1S(=O)(=O)Nc1cccc(O[C@@H]2CN(C(=O)c3cc(C)ccc3C)C[C@H]2OC)c1C (relative stereo) [Example 103, trans-N-(3-((1-(2,5-dimethylbenzoyl)-4-methoxypyrrolidin-3-yl)oxy)-2-methylphenyl)-2-methoxybenzenesulfonamide] | 80
COc1ccccc1S(=O)(=O)Nc1cc(C)cc(O[C@@H]2CN(C(=O)c3cc(C)ccc3C)C[C@H]2OC)c1 (relative stereo) [Example 105, trans-N-(3-((1-(2,5-dimethylbenzoyl)-4-methoxypyrrolidin-3-yl)oxy)-5-methylphenyl)-2-methoxybenzenesulfonamide] | 94
COc1ccccc1S(=O)(=O)Nc1cncc(O[C@@H]2CN(C(=O)c3cc(C)ccc3C)C[C@H]2OC)c1 (relative stereo) [Example 106, trans-N-(5-((1-(2,5-dimethylbenzoyl)-4-methoxypyrrolidin-3-yl)oxy)pyridin-3-yl)-2-methoxybenzenesulfonamide] | 104
COc1ccccc1S(=O)(=O)Nc1cccc(O[C@@H]2CN(C(=O)c3cc(C)ccc3C)C[C@H]2F)c1 (relative stereo) [Example 107, trans-N-(3-((1-(2,5-dimethylbenzoyl)-4-fluoropyrrolidin-3-yl)oxy)phenyl)-2-methoxybenzenesulfonamide] | 77
CO[C@@H]1CN(C(=O)c2c(C)cccc2C)C[C@H]1Oc1cccc(NS(=O)(=O)c2sccc2Cl)c1F (relative stereo) [Example 111, trans-3-chloro-N-(3-((1-(2,6-dimethylbenzoyl)-4-methoxypyrrolidin-3-yl)oxy)-2-fluorophenyl)thiophene-2-sulfonamide] | 52
COc1ccccc1S(=O)(=O)Nc1cccc(O[C@@H]2CN(C(=O)c3cc(C)ccc3C)C[C@H]2OC)c1Cl (relative stereo) [Example 117, trans-N-(2-chloro-3-((1-(2,5-dimethylbenzoyl)-4-methoxypyrrolidin-3-yl)oxy)phenyl)-2-methoxybenzenesulfonamide] | 66
COc1ccccc1S(=O)(=O)Nc1cccc(C[C@@H]2CN(C(=O)c3cc(C)ccc3C)C[C@H]2OC)c1 (relative stereo) [Example 119, trans-N-(3-((1-(2,5-dimethylbenzoyl)-4-methoxypyrrolidin-3-yl)methyl)phenyl)-2-methoxybenzenesulfonamide] | 57
COc1ccccc1S(=O)(=O)Nc1cccc(O[C@@H]2CN(C(=O)c3cc(C)ccc3C)C[C@H]2C#N)c1 (relative stereo) [Example 126, trans-N-(3-((4-cyano-1-(2,5-dimethylbenzoyl)pyrrolidin-3-yl)oxy)phenyl)-2-methoxybenzenesulfonamide] | 67

Further lines, results first:

OX2R agonist activity (3 μM, %) [%] | SMILES
103 | COc1ccc(-c2cccc(C(=O)N(C)C)c2)cc1S(=O)(=O)Nc1cccc(O[C@@H]2CN(C(=O)c3cc(C)ccc3C)C[C@@H]2OC)c1 (relative stereo) [Example 59, cis-3′-((3-((1-(2,5-dimethylbenzoyl)-4-methoxypyrrolidin-3-yl)oxy)phenyl)sulfamoyl)-4′-methoxy-N,N-dimethylbiphenyl-3-carboxamide]
105 | COc1ccc(-c2cccc(C(=O)N(C)C)c2)cc1S(=O)(=O)Nc1cccc(O[C@@H]2CN(C(=O)c3cc(C)ccc3C)C[C@H]2OC)c1 (relative stereo) [Example 60, trans-3′-((3-((1-(2,5-dimethylbenzoyl)-4-methoxypyrrolidin-3-yl)oxy)phenyl)sulfamoyl)-4′-methoxy-N,N-dimethylbiphenyl-3-carboxamide]
102 | COc1ccccc1S(=O)(=O)Nc1cccc(O[C@@H]2CN(C(=O)c3cc(C)ccc3C)C[C@H]2C)c1 (relative stereo) [Example 92, trans-N-(3-((1-(2,5-dimethylbenzoyl)-4-methylpyrrolidin-3-yl)oxy)phenyl)-2-methoxybenzenesulfonamide]
80 | CC[C@@H]1CN(C(=O)c2cc(C)ccc2C)C[C@H]1Oc1cccc(NS(=O)(=O)c2ccccc2OC)c1 (relative stereo) [Example 93, trans-N-(3-((1-(2,5-dimethylbenzoyl)-4-ethylpyrrolidin-3-yl)oxy)phenyl)-2-methoxybenzenesulfonamide]
60 | COc1ccccc1S(=O)(=O)Nc1cccc(O[C@@H]2CN(C(=O)c3cc(C)ccc3C)C[C@H]2O)c1 (relative stereo) [Example 114, trans-N-(3-((1-(2,5-dimethylbenzoyl)-4-hydroxypyrrolidin-3-yl)oxy)phenyl)-2-methoxybenzenesulfonamide]
103 | COc1ccc(-c2cccc(C(=O)N(C)C)c2)cc1S(=O)(=O)Nc1cccc(NC2CCN(C(=O)c3cccc(C)c3)C2)c1 (centres unmarked) [Example 1, 4′-methoxy-N,N-dimethyl-3′-((3-((1-(3-methylbenzoyl)pyrrolidin-3-yl)amino)phenyl)sulfamoyl)biphenyl-3-carboxamide]
90 | COc1ccc(-c2cccc(C(=O)N(C)C)c2)cc1S(=O)(=O)Nc1cccc(OC2CCN(C(=O)c3cccc(C)c3)C2)c1 (centres unmarked) [Example 2, 4′-methoxy-N,N-dimethyl-3′-((3-((1-(3-methylbenzoyl)pyrrolidin-3-yl)oxy)phenyl)sulfamoyl)bipheny-3-carboxamide]
101 | COc1ccc(-c2cccc(C(=O)N(C)C)c2)cc1S(=O)(=O)Nc1cccc(O[C@H]2CCN(C(=O)c3cccc(C)c3)C2)c1 [Example 6, 4′-methoxy-N,N-dimethyl-3′-((3-(((3S)-1-(3-methylbenzoyl)pyrrolidin-3-yl)oxy)phenyl)sulfamoyl)biphenyl-3-carboxamide]
